The experiment deals with T1, angiotensin IV receptor (Cavia porcellus, UniProt H0VNM7).
T1 sequence (H0VNM7 1-1025): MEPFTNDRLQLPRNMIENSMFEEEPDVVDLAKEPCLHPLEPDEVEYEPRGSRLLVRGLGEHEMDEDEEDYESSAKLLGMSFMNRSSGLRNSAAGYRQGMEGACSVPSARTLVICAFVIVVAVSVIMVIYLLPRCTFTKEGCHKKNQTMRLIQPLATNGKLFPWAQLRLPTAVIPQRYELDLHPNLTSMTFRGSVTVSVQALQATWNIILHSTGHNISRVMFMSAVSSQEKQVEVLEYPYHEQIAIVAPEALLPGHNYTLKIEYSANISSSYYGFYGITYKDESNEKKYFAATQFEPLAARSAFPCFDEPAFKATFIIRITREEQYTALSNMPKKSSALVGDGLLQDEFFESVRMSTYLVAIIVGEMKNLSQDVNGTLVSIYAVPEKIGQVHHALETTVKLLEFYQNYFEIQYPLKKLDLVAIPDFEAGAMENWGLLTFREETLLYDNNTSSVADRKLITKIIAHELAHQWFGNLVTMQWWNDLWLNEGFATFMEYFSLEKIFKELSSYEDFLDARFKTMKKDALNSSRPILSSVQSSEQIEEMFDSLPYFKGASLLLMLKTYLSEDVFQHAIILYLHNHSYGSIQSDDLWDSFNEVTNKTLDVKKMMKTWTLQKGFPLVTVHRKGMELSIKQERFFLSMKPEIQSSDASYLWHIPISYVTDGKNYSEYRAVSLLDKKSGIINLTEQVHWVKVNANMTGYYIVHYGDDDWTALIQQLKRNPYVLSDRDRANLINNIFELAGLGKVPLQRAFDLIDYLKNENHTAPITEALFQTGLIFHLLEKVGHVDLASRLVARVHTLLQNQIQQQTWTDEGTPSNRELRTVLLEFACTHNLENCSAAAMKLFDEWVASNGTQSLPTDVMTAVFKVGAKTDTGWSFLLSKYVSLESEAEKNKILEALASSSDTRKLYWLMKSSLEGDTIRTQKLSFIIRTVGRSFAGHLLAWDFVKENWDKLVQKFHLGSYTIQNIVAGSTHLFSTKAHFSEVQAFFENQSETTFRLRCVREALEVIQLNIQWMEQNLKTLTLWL
The experiment is described as follows: Binding to angiotensin IV receptor (125I-angiotensin IV displacement, crude membrane specimen). To be noted: Hartley guinea pig hippocampus membrane; 0.2 nM 125I-angiotensin IV; 37°C for 90 minutes; nonspecific bond with 1 µM angiotensin IV. The protocol: The capability of binding to angiotensin IV receptor was measured by using Hartley guinea pig hippocampus in accordance with the method reported by Miller-Wing et al., J. Pharmacol. Exp. Therp., 266:1718 (1993).
The Hartley guinea pig hippocampus was homogenized in a 50 mM Tris hydrochloride buffer solution (pH 7.4) containing 1 mM of ethylenediamine-N,N,N',N'-tetraacetic acid (EDTA) and 100 µm of phenylmethanesufonyl fluoride (PMSF). After centrifuging at 900 × g, the supernatant thus obtained was further centrifuged at 48,000 × g. The precipitate was washed once with the same buffer solution and then the precipitate was suspended in a 50 mM Tris hydrochloride buffer solution (pH 7.4) containing 150 mM of sodium chloride, 1 mM of EDTA, 100 µm of PMSF and 0.1% of bovine serum albumin (BSA) in such a manner as to give a protein concentration of 50 µg/ml to thereby give a crude membrane specimen.
This membrane specimen was allowed to react with 0.2 nM ^125I-angiotensin IV and a test compound dissolved in dimethyl sulfoxide at 37°C for 90 minutes. Then ^125I-angiotensin IV binding to the membrane was filtered under suction onto GF/B filer paper with the use of a cell harvester for laboratory use. The radioactivity on the filter paper was measured with a gamma-counter. The nonspecific bond was measured in the presence of 1 µM of angiotensin IV and the specific bond was calculated by subtracting the nonspecific bond from the total bond. The capability (IC50) of the test compound of binding to angiotensin IV receptor was determined as the concentration of the test compound capable of inhibiting the binding at an extent of 50% from the inhibition curve obtained by reacting 0.2 nM ^125I-angiotensin IV with the test compound at various concentrations.

pIC50: −log10 of the molar value. Counter-ions that a name gives are not always drawn.

Our source for the IC50 values is patent publication EP0838471A1, “PEPTIDE DERIVATIVES AND ANGIOTENSIN IV RECEPTOR AGONIST” (SAGAMI CHEMICAL RESEARCH CENTER, priority 1995, dated 1997).

As a reminder, the pIC50 is the IC50 on a negative log10 scale, so that one unit is a factor of ten. Read a low pIC50 as a high IC50. `CC[C@H](C)[C@H](CCc1ccccc1)NC(=O)[C@H](Cc1ccc(O)cc1)NC(=O)[C@@H](N)C(C)C` [Example 59, (3S,4S)-N'-(L-valyl)-N-(4-methyl-1-phenylhexan-3-yl)-L-tyrosinamide hydrochloride]: the pIC50 was 7.58.
`CCCC[C@H](N)C(=O)N[C@@H](Cc1ccc(O)cc1)C(=O)N[C@@H](CCc1ccc(C)cc1)[C@@H](C)CC` [Example 61, (3S,4S)-N'-(L-norleucyl)-N-[4-methyl-1-(4-methylphenyl)-1-hexan-3-yl]-L-tyrosinamide hydrochloride] had a pIC50 of 7.62. The pIC50 values of the last two compounds are within 0.2 log units of each other.
“L-valyl-L-tyrosyl-N-(4-pyridylmethyl)-L-isoleucinamide [Example 9]” had a pIC50 of 8.22.
Turning to “N'-[N-(L-norleucyl)-N^im-benzyl-L-histidyl]-N-(2-phenylethyl)-L-leucinamide dihydrochloride [Example 33]”, the pIC50 was 7.90.
In the case of “N'-[N-[L-2-amino-3-(ethylthio)propionyl]-L-tyrosyl]-N-(2-phenylethyl)-L-leucinamide hydrochloride [Example 18]”, the pIC50 is 9.40.
